Measured values reported in PMC4786998 (Journal of Hematology & Oncology, 2016).
Like-named read-outs stand apart in the source and are kept apart here.

How the values were obtained:
L1196M ALK kinase domain = conditions: cited from earlier work
[1] = Electrocardiogram QTcF in phase I patients; conditions: 325-mg dose
Protocol: The safety and tolerability of […] were assessed by adverse events (AEs) (graded based on NCI-CTCAE v4.03), laboratory tests, vital signs, electrocardiograms, and clinical observations.

[2] = Plasma pharmacokinetics in phase I patients; type: in vivo, human; conditions: for AUC: read-out: AUC24
Protocol: On day 1, the following PK parameters were assessed for […]: area under the plasma concentration-time curve (AUC24), AUClast, maximum concentration observed (Cmax), and time of maximum concentration observed (tmax). On day 28, [NT], Cmax, Ctrough, tmax, CL/F, Vz/F, and t1⁄2, calculated based on the ratio of accumulation for AUC (day 28 AUCtau/day 1 AUC24) (Rac [AUC]), were assessed. Cumulative effects on steady-state […] plasma levels were assessed by comparing Ctrough on day 28 divided by Ctrough on days 8, 15, and 22. For continuous variables, descriptive statistics included the number of patients, mean (standard deviation), median, and range. For antitumor assessments, the number and percentage (95 % CI) of patients with CR, PR, SD, and PD were summarized. The overall best tumor response was also summarized. For the objective response rates, the exact confidence interval of response was calculated only for the dose-expansion cohort using the Clopper-Pearson method. For continuous PK parameters, the coefficient of variation was calculated. For Cmax and AUC, geometric mean was calculated. All data processing and analyses were performed using SAS® Version 9.1.3 or higher. The safety analysis set was defined as patients who received at least one […] dose. The PK analysis set was defined as patients who received at least one dose of […] and provided the values of drug concentrations for at least one time point.

[3] = tested on: crizotinib-resistant ALK-positive tumors; assay: Antitumor response by RECIST v1.1 in the dose-expansion cohort; type: in vivo, human
From the text: Solid tumor assessment was based on Response Evaluation Criteria in Solid Tumors (RECIST) v1.1. For target lesions, complete response (CR) was defined as disappearance of all target lesions and pathologic lymph nodes with a reduction in short axis to <10 mm. Partial response (PR) was defined as a ≥30 % decrease in the sum of diameters of the target lesions, taking as reference the baseline sum of diameters. Progressive disease (PD) was defined as a ≥20 % increase in the sum of diameters from the smallest sum on the study and the sum of diameters to be ≥5 mm from the smallest sum on study. Stable disease (SD) was defined as neither PR nor PD.
For patients in the dose-expansion cohort with evaluable tumor diameter, the best tumor reduction was calculated as the decrease from baseline in the sum of the target lesions.
For continuous variables, descriptive statistics included the number of patients, mean (standard deviation), median, and range. For antitumor assessments, the number and percentage (95 % CI) of patients with CR, PR, SD, and PD were summarized. The overall best tumor response was also summarized. For the objective response rates, the exact confidence interval of response was calculated only for the dose-expansion cohort using the Clopper–Pearson method. For continuous PK parameters, the coefficient of variation was calculated. For Cmax and AUC, geometric mean was calculated. All data processing and analyses were performed using SAS® Version 9.1.3 or higher.

[4] = target: wild-type ALK kinase domain; conditions: cited from earlier work
[5] = Phase I safety/tolerability (adverse events, DLT, MTD) in patients with advanced solid tumors
Protocol: The study was divided into two parts: dose escalation and dose expansion. Dose escalation used a traditional 3 + 3 dose-escalation design. […] The first patient in each dose-escalation cohort was evaluated for dose-limiting toxicities (DLTs) in cycle 1, day 4. If no DLTs were reported by the investigator, the remaining patients in the cohort were enrolled. […] The protocol allowed that and subsequent doses to be expanded to enroll an additional three patients who were known to have tumors tested positive for ALK abnormalities once safety was established in the first three subjects for that cohort.

[6] = tested on: panel of 86 tyrosine kinases; conditions: 1 μmol/L; cited from earlier work
[7] = tested on: wild-type ALK and EML4-ALK L1196M xenograft tumors; conditions: mice, subcutaneous and intracranial xenografts, compared with crizotinib; cited from earlier work
[8] = human, plasma, oral, 25 mg, cycle 1, day 1, 25 mg once daily, dose-escalation cohort, n = 4, mean (standard deviation)
[9] = human, plasma, oral, 25 mg, cycle 1, day 28, 25 mg once daily, dose-escalation cohort, n = 3, mean (standard deviation)
[10] = human, plasma, oral, 50 mg, cycle 1, day 1, 50 mg once daily, dose-escalation cohort, n = 3, mean (standard deviation)
[11] = human, plasma, oral, 50 mg, cycle 1, day 28, 50 mg once daily, dose-escalation cohort, n = 3, mean (standard deviation)
[12] = human, plasma, oral, 75 mg, cycle 1, day 1, 75 mg once daily, dose-escalation cohort, n = 3, mean (standard deviation)
[13] = human, plasma, oral, 75 mg, cycle 1, day 28, 75 mg once daily, dose-escalation cohort, n = 3, mean (standard deviation)
[14] = human, plasma, oral, 125 mg, cycle 1, day 1, 125 mg once daily, dose-escalation cohort, n = 4, mean (standard deviation)
[15] = human, plasma, oral, 125 mg, cycle 1, day 28, 125 mg once daily, dose-escalation cohort, n = 1
[16] = human, plasma, oral, 200 mg once daily, cycle 1, day 28, 200 mg once daily, dose-escalation cohort, n = 3, mean (standard deviation)
[17] = human, plasma, oral, 200 mg, cycle 1, day 1, 200 mg once daily, dose-escalation cohort, n = 4, mean (standard deviation)
[18] = human, plasma, oral, 325 mg once daily, cycle 1, day 28, 325 mg once daily, dose-escalation cohort, n = 3, mean (standard deviation)
[19] = human, plasma, oral, 325 mg, cycle 1, day 1, 325 mg once daily, dose-escalation cohort, n = 3, mean (standard deviation)
[20] = human, plasma, oral, 800 mg, cycle 1, day 1, 800 mg once daily, dose-escalation cohort, n = 3, mean (standard deviation)
[21] = human, plasma, oral, 800 mg, cycle 1, day 28, 800 mg once daily, dose-escalation cohort, n = 1
[22] = expansion cohort, 525 mg, n = 16

SMILES: COc1cc(N2CCC(N3CCN(C)CC3)CC2)ccc1Nc1ncnc(Nc2ccccc2S(=O)(=O)C(C)C)n1 [ASP3026]
- IC50 (L1196M ALK kinase domain): 32 nM
- QTcF, mean (standard deviation) maximal increase [1]: 47.0 (10.7) ms
- slope estimate (95 % CI) of dose-normalized AUClast versus dose ([2]; human, in vivo): 0.090 (−0.097, 0.277)
- slope estimate (95 % CI) of dose-normalized Cmax versus dose ([2]; human, in vivo): 0.170 (−0.018, 0.358)
- t ½ ([2]; human, in vivo): 24.9 (12.7) h
- time to steady-state plasma concentrations ([2]; human, in vivo): ≤ 8 days
- half-life ([2]; human, in vivo, accumulation half-life, mean (standard deviation)): 25 h
- half-life ([2]; human, in vivo, half-life, range): 22 to 85 h
- half-life ([2]; human, in vivo, median half-life): 35 h
- Tmax ([2]; human, in vivo, po, tmax): ~3 h
- Tmax ([2]; human, in vivo, t max): 4 h
- half-life ([2]; human, in vivo, t ½): 27.3 h
- Cmax [2, 8]: 32 ng/mL
- AUC [2, 8]: 378 ng·h/mL
- Tmax ([2]; human, plasma, oral, 25 mg, cycle 1, day 1, 25 mg once daily, dose-escalation cohort, n = 4, median (range), read-out: t max): 3 h
- Cmax [2, 9]: 68.4 ng/mL
- half-life ([2]; human, plasma, oral, 25 mg, cycle 1, day 28, 25 mg once daily, dose-escalation cohort, n = 3, mean (standard deviation), calculated from accumulation ratio, read-out: t ½ (converted)): 36.6 h
- AUC [2, 9]: 1040 ng·h/mL
- Tmax ([2]; human, plasma, oral, 25 mg, cycle 1, day 28, 25 mg once daily, dose-escalation cohort, n = 3, median (range), read-out: t max): 3 h
- Cmax [2, 10]: 99.7 ng/mL
- AUC [2, 10]: 846 ng·h/mL
- Tmax ([2]; human, plasma, oral, 50 mg, cycle 1, day 1, 50 mg once daily, dose-escalation cohort, n = 3, median (range), read-out: t max): 3 h
- Cmax [2, 11]: 143 ng/mL
- half-life ([2]; human, plasma, oral, 50 mg, cycle 1, day 28, 50 mg once daily, dose-escalation cohort, n = 3, mean (standard deviation), calculated from accumulation ratio, read-out: t ½ (converted)): 35.2 h
- AUC [2, 11]: 2110 ng·h/mL
- Tmax ([2]; human, plasma, oral, 50 mg, cycle 1, day 28, 50 mg once daily, dose-escalation cohort, n = 3, median (range), read-out: t max): 3 h
- Cmax [2, 12]: 87.6 ng/mL
- AUC [2, 12]: 1160 ng·h/mL
- Tmax ([2]; human, plasma, oral, 75 mg, cycle 1, day 1, 75 mg once daily, dose-escalation cohort, n = 3, median (range), read-out: t max): 8.2 h
- Cmax [2, 13]: 352 ng/mL
- half-life ([2]; human, plasma, oral, 75 mg, cycle 1, day 28, 75 mg once daily, dose-escalation cohort, n = 3, mean (standard deviation), calculated from accumulation ratio, read-out: t ½ (converted)): 84.7 h
- AUC [2, 13]: 5630 ng·h/mL
- Tmax ([2]; human, plasma, oral, 75 mg, cycle 1, day 28, 75 mg once daily, dose-escalation cohort, n = 3, median (range), read-out: t max): 3 h
- Cmax [2, 14]: 262 ng/mL
- AUC [2, 14]: 3000 ng·h/mL
- Tmax ([2]; human, plasma, oral, 125 mg, cycle 1, day 1, 125 mg once daily, dose-escalation cohort, n = 4, median (range), read-out: t max): 5 h
- Cmax [2, 15]: 668 ng/mL
- half-life ([2]; human, plasma, oral, 125 mg, cycle 1, day 28, 125 mg once daily, dose-escalation cohort, n = 1, calculated from accumulation ratio, read-out: t ½ (converted)): 36.7 h
- AUC [2, 15]: 8970 ng·h/mL
- Tmax ([2]; human, plasma, oral, 125 mg, cycle 1, day 28, 125 mg once daily, dose-escalation cohort, n = 1, read-out: t max): 2.1 h
- Cmax [2, 16]: 682 ng/mL
- half-life ([2]; human, plasma, oral, 200 mg once daily, cycle 1, day 28, 200 mg once daily, dose-escalation cohort, n = 3, mean (standard deviation), calculated from accumulation ratio, read-out: t ½ (converted)): 21.9 h
- AUC [2, 16]: 7620 ng·h/mL
- Tmax ([2]; human, plasma, oral, 200 mg once daily, cycle 1, day 28, 200 mg once daily, dose-escalation cohort, n = 3, median (range), read-out: t max): 3 h
- Cmax [2, 17]: 490 ng/mL
- AUC [2, 17]: 4580 ng·h/mL
- Tmax ([2]; human, plasma, oral, 200 mg, cycle 1, day 1, 200 mg once daily, dose-escalation cohort, n = 4, median (range), read-out: t max): 2.5 h
- Cmax [2, 18]: 1160 ng/mL
- half-life ([2]; human, plasma, oral, 325 mg once daily, cycle 1, day 28, 325 mg once daily, dose-escalation cohort, n = 3, mean (standard deviation), calculated from accumulation ratio, read-out: t ½ (converted)): 26.3 h
- AUC [2, 18]: 18800 ng·h/mL
- Tmax ([2]; human, plasma, oral, 325 mg once daily, cycle 1, day 28, 325 mg once daily, dose-escalation cohort, n = 3, median (range), read-out: t max): 4 h
- Cmax [2, 19]: 586 ng/mL
- AUC [2, 19]: 7950 ng·h/mL
- Tmax ([2]; human, plasma, oral, 325 mg, cycle 1, day 1, 325 mg once daily, dose-escalation cohort, n = 3, median (range), read-out: t max): 3 h
- Cmax [2, 20]: 1630 ng/mL
- AUC [2, 20]: 21800 ng·h/mL
- Tmax ([2]; human, plasma, oral, 800 mg, cycle 1, day 1, 800 mg once daily, dose-escalation cohort, n = 3, median (range), read-out: t max): 3 h
- Cmax [2, 21]: 4850 ng/mL
- half-life ([2]; human, plasma, oral, 800 mg, cycle 1, day 28, 800 mg once daily, dose-escalation cohort, n = 1, calculated from accumulation ratio, read-out: t ½ (converted)): 37.9 h
- AUC [2, 21]: 78100 ng·h/mL
- Tmax ([2]; human, plasma, oral, 800 mg, cycle 1, day 28, 800 mg once daily, dose-escalation cohort, n = 1, read-out: t max): 4 h
- linearity and dose proportionality of exposure (Cmax and AUClast) ([2]; multiple dosing (day 28), 25- to 800-mg dose range): both linear and dose-proportional exposure
- best overall response: stable disease rate ([3]; 525 mg, 16 crizotinib-resistant ALK-positive patients): 44%
- best overall response: partial response rate ([3]; 525 mg, 16 crizotinib-resistant ALK-positive patients (15 NSCLC, 1 neuroblastoma)): 50%
- objective (overall) response rate (CR + PR) ([3]; 525 mg, 16 crizotinib-resistant ALK-positive patients, 95 % CI 25–75 %): 50%
- stable disease rate ([3]; 525 mg, restricted to ALK-positive NSCLC patients, 6/15): 40%
- partial response rate ([3]; 525 mg, restricted to ALK-positive NSCLC patients, 8/15): 53%
- median progression-free survival ([3]; ALK-positive patients, 95 % CI 4–9): 6 months
- duration of response, range ([3]; dose-expansion cohort, 525 mg): 27 to 338 days
- Best overall response: complete response [3, 22]: 0 n (%)
- Best overall response: partial response [3, 22]: 8 (50) n (%)
- Best overall response: progressive disease [3, 22]: 0 n (%)
- Best overall response: stable disease [3, 22]: 7 (44) n (%)
- Best overall response: unable to evaluate [3, 22]: 1 (6) n (%)
- Objective response (complete response + partial response) ([3]; expansion cohort, 525 mg, n = 16, 95 % CI 25–75 %): 8 (50) n (%)
- IC50 [4]: 10 nM
- deaths on study ([5]; all due to PD, not related to the study drug): three
- changes in clinical laboratory parameters or vital signs over time ([5]; human, in vivo): no meaningful changes
- treatment-related adverse event: fatigue ([5]; human, in vivo): 35%
- treatment-related adverse event: nausea ([5]; human, in vivo): 38%
- treatment-related adverse event: vomiting ([5]; human, in vivo): 35%
- dose-limiting toxicities observed ([5]; human, in vivo, 28 days): Grade 3 rash and elevated transaminase concentrations
- number of tyrosine kinases inhibited by more than 50 % [6]: 11
- antitumor activity in xenograft tumors [7]: potent antitumor activity
